Experimental data as given in patent US10039759B2, “Quinolines as FGFR kinase modulators” (priority 2011, dated 2018).
Counter-ions that a name gives are not always drawn.

What was measured:
FGFR2 (h) = FGFR2 (h) (Homo sapiens, UniProt P21802); assay: FGFR2 (enzymatic assay), TR-FRET; type: biochemical; details: 0.4 μM ATP, 60 min; pIC50 = -log IC50 (M); average if tested multiple times; read-out: FGFR 2 pIC50 (converted)
FGFR3 (h) = FGFR3 (h) (Homo sapiens, UniProt P22607); assay: FGFR3 (enzymatic assay), TR-FRET; type: biochemical; details: 25 μM ATP, 60 min; pIC50 = -log IC50 (M); average if tested multiple times; read-out: hFGFR 3 pIC50 (converted)
FGFR3 (h), sequence (P22607 23-806): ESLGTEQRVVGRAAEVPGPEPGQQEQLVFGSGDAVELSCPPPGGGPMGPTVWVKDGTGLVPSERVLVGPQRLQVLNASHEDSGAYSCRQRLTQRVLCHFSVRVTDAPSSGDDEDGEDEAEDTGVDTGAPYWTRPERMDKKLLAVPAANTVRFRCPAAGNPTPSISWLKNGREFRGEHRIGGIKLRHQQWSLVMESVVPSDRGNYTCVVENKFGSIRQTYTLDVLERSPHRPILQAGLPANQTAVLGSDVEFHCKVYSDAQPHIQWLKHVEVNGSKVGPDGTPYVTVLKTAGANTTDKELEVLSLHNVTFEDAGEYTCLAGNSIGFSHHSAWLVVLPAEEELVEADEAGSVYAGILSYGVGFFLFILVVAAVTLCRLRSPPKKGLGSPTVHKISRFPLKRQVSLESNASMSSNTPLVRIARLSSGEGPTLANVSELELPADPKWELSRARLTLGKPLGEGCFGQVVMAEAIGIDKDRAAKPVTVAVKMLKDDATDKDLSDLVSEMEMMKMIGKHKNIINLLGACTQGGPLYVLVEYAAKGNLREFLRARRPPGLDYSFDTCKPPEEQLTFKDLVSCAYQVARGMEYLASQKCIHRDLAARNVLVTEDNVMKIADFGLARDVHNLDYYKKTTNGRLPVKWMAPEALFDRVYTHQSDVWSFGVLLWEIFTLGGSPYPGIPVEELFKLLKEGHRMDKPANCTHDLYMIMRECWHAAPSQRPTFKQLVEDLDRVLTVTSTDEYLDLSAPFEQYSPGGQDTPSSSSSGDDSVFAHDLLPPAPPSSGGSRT

KDR (h) = KDR (h) (Homo sapiens, UniProt P35968); assay: KDR (VEGFR2) (enzymatic assay), TR-FRET; type: biochemical; details: 3 μM ATP, 120 min; pIC50 = -log IC50 (M); average if tested multiple times; read-out: VEGFR KDR pIC50 (converted)
KDR (h), sequence (P35968 20-1356): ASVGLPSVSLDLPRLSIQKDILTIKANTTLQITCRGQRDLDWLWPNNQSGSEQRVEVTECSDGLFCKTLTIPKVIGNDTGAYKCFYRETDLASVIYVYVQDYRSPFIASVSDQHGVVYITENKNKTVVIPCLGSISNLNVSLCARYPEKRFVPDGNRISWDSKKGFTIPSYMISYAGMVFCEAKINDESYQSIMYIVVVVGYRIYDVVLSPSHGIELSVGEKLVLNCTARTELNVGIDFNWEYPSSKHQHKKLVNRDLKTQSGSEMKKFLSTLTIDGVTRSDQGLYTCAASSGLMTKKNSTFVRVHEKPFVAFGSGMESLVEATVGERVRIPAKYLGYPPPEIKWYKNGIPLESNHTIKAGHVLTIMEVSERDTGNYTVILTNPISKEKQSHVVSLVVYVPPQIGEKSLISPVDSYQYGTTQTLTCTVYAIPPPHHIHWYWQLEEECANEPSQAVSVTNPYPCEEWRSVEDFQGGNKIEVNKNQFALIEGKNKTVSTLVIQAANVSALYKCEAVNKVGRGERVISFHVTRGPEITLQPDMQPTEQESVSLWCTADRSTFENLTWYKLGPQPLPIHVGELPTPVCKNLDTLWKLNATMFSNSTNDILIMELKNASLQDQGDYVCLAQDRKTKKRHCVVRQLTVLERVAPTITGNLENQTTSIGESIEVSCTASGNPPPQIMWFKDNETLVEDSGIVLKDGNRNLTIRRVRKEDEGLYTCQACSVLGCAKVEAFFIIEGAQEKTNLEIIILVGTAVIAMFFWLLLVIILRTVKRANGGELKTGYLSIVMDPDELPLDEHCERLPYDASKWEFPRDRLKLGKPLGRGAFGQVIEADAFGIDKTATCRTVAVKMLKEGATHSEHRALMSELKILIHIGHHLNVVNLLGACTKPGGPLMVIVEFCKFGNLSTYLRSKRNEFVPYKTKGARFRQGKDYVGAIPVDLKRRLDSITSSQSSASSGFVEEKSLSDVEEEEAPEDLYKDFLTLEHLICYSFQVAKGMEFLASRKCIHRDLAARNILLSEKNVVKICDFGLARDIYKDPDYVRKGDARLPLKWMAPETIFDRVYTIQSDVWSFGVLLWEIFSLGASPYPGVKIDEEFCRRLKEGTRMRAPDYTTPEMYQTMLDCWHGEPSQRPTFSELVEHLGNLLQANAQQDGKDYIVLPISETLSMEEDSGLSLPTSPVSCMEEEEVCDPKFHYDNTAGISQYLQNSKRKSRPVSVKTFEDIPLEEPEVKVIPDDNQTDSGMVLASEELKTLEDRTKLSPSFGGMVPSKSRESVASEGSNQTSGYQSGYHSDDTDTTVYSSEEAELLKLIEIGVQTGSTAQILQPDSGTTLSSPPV
Method: KDR (VEGFR2) (Enzymatic Assay)
In a final reaction volume of 30 μL, KDR (h) (150 ng/ml) was incubated with 50 mM HEPES pH 7.5, 6 mM MnCl2, 1 mM DTT, 0.1 mM Na3VO4, 0.01% Triton-X-100, 500 nM Btn-Flt3 and 3 μM ATP in the presence of compound (1% DMSO final). After incubation for 120 minutes at room temperature the reaction was stopped with 2.27 nM EU-anti P-Tyr, 7 mM EDTA, 31.25 nM SA-XL-665 and 0.02% BSA which was present for 60 minutes at room temperature. Time-Resolved Fluorescence Resonance Energy Transfer (TR-FRET) signal (ex340 nm. Em 620 nm, em 655 nm) was measured afterwards and results are expressed in RFU (Relative Fluorescence Units). In this assay, the inhibitory effect of different compound concentrations (range 10 μM to 0.1 nM) was determined and used to calculate an IC50 (M) and pIC50 (−log IC50) value.

[1] = target: T1, Ba/F3-FGFR1-transfected cells (Homo sapiens, UniProt P11362, cells depend on it, form not given); assay: Ba/F3-FGFR1 (minus IL3 or plus IL3) cellular proliferation assay, Alamar Blue; type: cell-based; details: minus IL3, 24 hours
T1 construct: other: minus IL3; 24 hours, Alamar Blue
Method: Ba/F3-FGFR1 (Minus IL3 or Plus IL3) (Cellular Proliferation Assay)
(§1) In a 384 well plate, 100 nl of compound dilution in DMSO was sprayed before adding 50 μl cell culture medium (phenol red free RPMI-1640, 10% FBS, 2 mM L-Glutamine and 50 μg/ml Gentamycin) containing 20000 cells per well of Ba/F3-FGFR1-transfected cells. Cells were put in an incubator at 37° C. and 5% CO2. After 24 hours, 10 μl of Alamar Blue solution (0.5 mM K3Fe(CN)6, 0.5 mM K4Fe(CN)6, 0.15 mM Resazurin and 100 mM Phosphate Buffer) was added to the wells, incubated for 4 hours at 37° C. and 5% CO2 before RFU's (Relative Fluorescence Units) (ex. 540 nm., em. 590 nm.) were measured in a fluorescence plate reader.
(§2) In this assay, the inhibitory effect of different compound concentrations (range 10 μM to 0.1 nM) was determined and used to calculate an IC50 (M) and pIC50 (−log IC50) value. As a counterscreen the same experiment was performed in the presence of 10 ng/ml murine IL3.

[2] = target: T2, Ba/F3-FGFR3-transfected cells (Homo sapiens, UniProt P22607, cells depend on it, form not given); assay: Ba/F3-FGFR3 (minus IL3 or plus IL3) cellular proliferation assay, Alamar Blue; type: cell-based; details: minus IL3; 24 hours, Alamar Blue
T2 construct: BAF3-FGFR3 (MIN IL3 Alamar Blue- pIC50); other: minus IL3; 24 hours, Alamar Blue
Method: (§3) Ba/F3-FGFR3 (Minus IL3 or Plus IL3) (Cellular Proliferation Assay)
as §1, with “Ba/F3-FGFR3-transfected” for “Ba/F3-FGFR1-transfected”
as §2

[3] = target: T3, Ba/F3-KDR-transfected cells (Homo sapiens, UniProt P35968, cells depend on it, form not given); assay: Ba/F3-KDR (minus IL3 or plus IL3) cellular proliferation assay, Alamar Blue; type: cell-based; details: minus IL3; 24 hours, Alamar Blue
T3 construct: BAF3-KDR (MIN IL3 Alamar Blue pIC50); other: minus IL3; 24 hours, Alamar Blue
Method: (§4) Ba/F3-KDR (Minus IL3 or Plus IL3) (Cellular Proliferation Assay)
as §1, with “Ba/F3-KDR-transfected” for “Ba/F3-FGFR1-transfected”
as §2

[4] = target: Ba/F3-FGFR4-transfected cells (Homo sapiens, UniProt P22455); assay: Ba/F3-FGFR4 cellular proliferation assay, Alamar Blue; type: cell-based; details: 24 hours
Ba/F3-FGFR4-transfected cells, sequence (P22455 whole entry, change not shown): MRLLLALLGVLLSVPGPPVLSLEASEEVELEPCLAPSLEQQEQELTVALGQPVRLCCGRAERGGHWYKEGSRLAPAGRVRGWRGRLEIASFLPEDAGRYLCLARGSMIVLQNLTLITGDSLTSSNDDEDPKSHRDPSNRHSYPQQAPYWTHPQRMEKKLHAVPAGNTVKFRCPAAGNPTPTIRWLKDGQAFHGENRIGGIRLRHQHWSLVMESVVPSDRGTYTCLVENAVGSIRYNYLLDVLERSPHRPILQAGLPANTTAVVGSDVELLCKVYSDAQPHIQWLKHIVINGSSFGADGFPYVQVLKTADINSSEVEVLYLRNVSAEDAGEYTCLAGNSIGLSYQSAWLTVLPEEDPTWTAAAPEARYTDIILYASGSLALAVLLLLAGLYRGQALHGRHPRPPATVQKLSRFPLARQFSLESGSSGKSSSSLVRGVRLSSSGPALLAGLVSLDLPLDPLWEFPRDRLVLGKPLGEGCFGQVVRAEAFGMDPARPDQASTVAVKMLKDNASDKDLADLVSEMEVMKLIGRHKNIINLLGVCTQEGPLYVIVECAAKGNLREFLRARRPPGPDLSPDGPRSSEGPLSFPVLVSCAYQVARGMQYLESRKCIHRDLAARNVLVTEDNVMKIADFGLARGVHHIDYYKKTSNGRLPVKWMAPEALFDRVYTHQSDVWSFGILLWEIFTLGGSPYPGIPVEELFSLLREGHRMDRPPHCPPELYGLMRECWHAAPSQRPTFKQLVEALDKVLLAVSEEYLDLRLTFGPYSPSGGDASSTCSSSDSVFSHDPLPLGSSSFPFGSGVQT
Method: Ba/F3-FGFR4 (Cellular Proliferation Assay)
as §1, with “Ba/F3-FGFR4-transfected” for “Ba/F3-FGFR1-transfected”
In this assay, the inhibitory effect of different compound concentrations (range 10 μM to 0.1 nM) was determined and used to calculate an IC50 (M) and pIC50 (−log IC50) value.

FGFR4 (h) = FGFR4 (h) (Homo sapiens, UniProt P22455); assay: FGFR4 (enzymatic assay), TR-FRET; type: biochemical; details: FGFR 4 pIC50, 5 μM ATP, 60 min; pIC50 = -log IC50 (M); average if tested multiple times
FGFR4 (h), sequence (P22455 22-802): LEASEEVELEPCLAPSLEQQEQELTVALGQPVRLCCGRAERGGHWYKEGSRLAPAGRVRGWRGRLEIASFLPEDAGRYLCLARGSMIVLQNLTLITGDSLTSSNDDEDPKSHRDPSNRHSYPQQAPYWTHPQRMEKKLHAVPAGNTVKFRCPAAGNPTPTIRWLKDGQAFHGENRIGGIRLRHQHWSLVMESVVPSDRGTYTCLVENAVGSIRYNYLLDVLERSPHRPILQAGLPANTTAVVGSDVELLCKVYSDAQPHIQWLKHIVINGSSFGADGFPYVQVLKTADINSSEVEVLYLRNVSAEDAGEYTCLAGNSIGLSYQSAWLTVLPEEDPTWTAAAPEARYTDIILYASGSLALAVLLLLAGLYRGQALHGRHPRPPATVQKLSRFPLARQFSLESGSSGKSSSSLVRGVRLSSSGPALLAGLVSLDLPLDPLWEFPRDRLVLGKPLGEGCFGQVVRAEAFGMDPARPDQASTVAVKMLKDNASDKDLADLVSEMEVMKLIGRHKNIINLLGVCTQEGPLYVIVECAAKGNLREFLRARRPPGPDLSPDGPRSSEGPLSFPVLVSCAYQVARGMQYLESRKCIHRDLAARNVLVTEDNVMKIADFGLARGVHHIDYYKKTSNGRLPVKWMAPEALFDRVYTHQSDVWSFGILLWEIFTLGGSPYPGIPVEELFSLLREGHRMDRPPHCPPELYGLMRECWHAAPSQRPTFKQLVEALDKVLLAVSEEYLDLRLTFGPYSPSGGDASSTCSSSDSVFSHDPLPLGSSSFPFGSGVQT

[5] = test system: Ba/F3-FGFR3-transfected cells; assay: Ba/F3-FGFR3 (minus IL3 or plus IL3) cellular proliferation assay, Alamar Blue; type: cell-based; details: plus IL3 (10 ng/ml murine IL3, counterscreen); 24 hours, Alamar Blue; read-out: BAF3-FGFR3 (PLUS IL3 Alamar Blue pIC50) (converted)
Method: as §3
as §1, with “Ba/F3-FGFR3-transfected” for “Ba/F3-FGFR1-transfected”
as §2

[6] = test system: Ba/F3-KDR-transfected cells; assay: Ba/F3-KDR (minus IL3 or plus IL3) cellular proliferation assay, Alamar Blue; type: cell-based; details: plus IL3 (10 ng/ml murine IL3, counterscreen); 24 hours, Alamar Blue; read-out: BAF3-KDR (PLUS IL3 Alamar Blue pIC50) (converted)
Method: as §4
as §1, with “Ba/F3-KDR-transfected” for “Ba/F3-FGFR1-transfected”
as §2

FGFR1 (h) = FGFR1 (h) (Homo sapiens, UniProt P11362); assay: FGFR1 (enzymatic assay), TR-FRET; type: biochemical; details: FGFR 1 pIC50, 5 μM ATP, 60 min; pIC50 = -log IC50 (M); average if tested multiple times
FGFR1 (h), sequence (P11362 22-822): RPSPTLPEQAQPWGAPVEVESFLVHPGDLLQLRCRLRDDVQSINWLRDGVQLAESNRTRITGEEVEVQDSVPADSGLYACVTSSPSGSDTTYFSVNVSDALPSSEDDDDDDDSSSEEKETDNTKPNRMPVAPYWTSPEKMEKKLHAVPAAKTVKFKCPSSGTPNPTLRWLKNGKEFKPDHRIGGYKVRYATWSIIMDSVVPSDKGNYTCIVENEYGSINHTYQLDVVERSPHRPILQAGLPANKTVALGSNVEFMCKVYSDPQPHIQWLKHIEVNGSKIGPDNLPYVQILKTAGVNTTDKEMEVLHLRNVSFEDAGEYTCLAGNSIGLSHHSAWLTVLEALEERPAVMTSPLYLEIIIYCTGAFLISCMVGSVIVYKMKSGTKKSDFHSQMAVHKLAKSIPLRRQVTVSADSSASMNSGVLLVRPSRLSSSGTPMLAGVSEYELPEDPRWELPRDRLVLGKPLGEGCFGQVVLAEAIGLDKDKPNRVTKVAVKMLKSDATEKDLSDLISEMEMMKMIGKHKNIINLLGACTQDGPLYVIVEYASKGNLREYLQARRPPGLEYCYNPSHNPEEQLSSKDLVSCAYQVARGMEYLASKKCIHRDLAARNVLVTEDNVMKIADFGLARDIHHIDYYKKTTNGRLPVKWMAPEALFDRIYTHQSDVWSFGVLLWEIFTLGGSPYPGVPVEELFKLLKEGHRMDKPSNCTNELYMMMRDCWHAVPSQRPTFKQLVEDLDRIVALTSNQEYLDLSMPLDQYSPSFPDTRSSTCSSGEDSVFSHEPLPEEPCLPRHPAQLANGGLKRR

SMILES	melting point [°C]	IC50 (FGFR2 (h)) [M]	IC50 (FGFR3 (h)) [M]	IC50 (KDR (h)) [M]	BAF3-FGFR1 (MIN IL3 pIC50) [1]	BAF3-FGFR3 (MIN IL3 Alamar Blue- pIC50) [2]	BAF3-KDR (MIN IL3 Alamar Blue pIC50) [3]	BAF3-FGFR 4 (pIC50) [4]	IC50 (FGFR4 (h)) [M]	IC50 [5] [nM]	IC50 [6] [nM]	IC50 (FGFR1 (h)) [M]
C#CCN(c1ccc2ncc(-c3cnn(C)c3)cc2c1)c1cc(OC)cc(OC)c1F	120	–	–	–	–	–	–	–	–	–	–	–
COc1cc(OC)cc(N(CCCN2CCCC2=O)c2ccc3ncc(-c4cnn(C)c4)cc3c2)c1 (as salt: HCl) (hydrate or solvate) [Compound 10]	142	–	–	–	–	–	–	–	–	–	–	–
COc1cc(OC)cc(N(CCNC(C)C)c2ccc3ncc(-c4cnn(CCO)c4)cc3c2)c1 (as salt: HCl) (hydrate or solvate) [Compound 13]	86 to 115	–	–	–	–	–	–	–	–	–	–	–
COc1cc(OC)cc(C(CCNC(C)C)c2ccc3ncc(-c4cnn(C)c4)cc3c2)c1 (stereo not shown) (as salt: HCl) [Compound 41]	> 300	–	–	–	–	–	–	–	–	–	–	–
CNCCN(c1ccc2ncc(-c3cnn(C)c3)cc2c1)c1c(F)c(OC)cc(OC)c1F (as salt: HCl) [Compound 43]	180	–	–	–	–	–	–	–	–	–	–	–
COc1cc(OC)cc(/C(=C/C#N)c2ccc3ncc(-c4cnn(C)c4)cc3c2)c1 [Compound 29]	86	~6.76e-08	4.57e-08	5.62e-07	5.45	5.29	5.15	<5	–	–	–	–
COc1cc(OC)cc(C(CCO)c2ccc3ncc(-c4cnn(C)c4)cc3c2)c1 (stereo not shown) [Compound 34]	131	1.86e-07	2.14e-08	> 1e-06	5.01	5.16	<5	<5	4.17e-07	> 10000	> 10000	–
COc1cc(OC)cc(C(CC#N)c2ccc3ncc(-c4cnn(C)c4)cc3c2)c1 (stereo not shown) [Compound 39]	172	2.82e-07	1.78e-07	> 1e-06	5.09	<5	<5	<5	> 1e-06	> 10000	> 10000	–
COc1cc(OC)c(F)c(N(CCNC(C)C)c2ccc3ncc(-c4cnn(C)c4)cc3c2)c1F [Compound 42]	75	3.16e-09	3.39e-09	1.58e-08	8.95	8.25	6.95	8.25	2.88e-09	> 10000	> 10000	1.15e-09
COc1cc(OC)cc(N(CCO)c2ccc3ncc(-c4ccccc4)cc3c2)c1 [Compound 50]	111	5.5e-08	5.75e-08	> 1e-06	5.11	5.19	<5	<5	2.57e-07	> 10000	> 10000	6.92e-08
COc1cc(OC)cc(N(Cc2ncc[nH]2)c2ccc3ncc(-c4ccccc4)cc3c2)c1 [Compound 52]	133	6.61e-09	8.51e-09	9.33e-07	5.77	6.00	<5	5.48	1.66e-08	–	–	1.58e-08
COc1cc(OC)cc(N(CCO)c2ccc3ncc(N4CCOCC4)cc3c2)c1 [Compound 54]	–	1.82e-07	1.45e-07	> 1e-06	<5	5.16	<5	<5	> 1e-06	> 10000	> 10000	3.8e-07
COc1cc(OC)cc(N(CCO)c2ccc3ncc(-c4ccn(C)c4)cc3c2)c1 [Compound 61]	158	~1.26e-08	2.69e-09	1.91e-07	6.02	5.84	5.40	5.66	2.09e-08	> 10000	> 10000	–
